Laboratory results published in patent US20230382948A1, “DELIVERY OF ENDOTHELIAL CELL-LADEN MICROGEL ELICITS ANGIOGENESIS IN SELF-ASSEMBLING ULTRASHORT PEPTIDE HYDROGELS” (KING ABDULLAH UNIVERSITY OF SCIENCE AND TECHNOLOGY, priority 2020, published 2023).

Key:
[1] = system: endothelial cells (HUVECs); test: Cell culture on microgels, HUVEC; type: cell-based, human; settings: first 24 h of culture
Procedure: A 1.2×10^6 amount of cells suspended in 4 mL of complete cell culture media (300,000 cells/mL) was mixed with 200 μL of microgels by pipetting. The mix was seeded at […] in a 24-well low binding plate and kept at 37° C., 95% humidity, and 5% CO2 under rocker conditions at 30 rpm for 24 h. Then, cell-laden microgels were transferred into a tube by pipetting and spun down at 50 g for 5 min. The upper layer, containing cells not adherent to the microgels, was discarded. At this moment, cell-laden microgels were either resuspended with complete cell culture media to continue cell culture under rocker conditions or processed for staining.
The cell-laden microgels were fixed with 4% formaldehyde (v/v) in PBS and incubated for 30 min at 22° C. Later, formaldehyde was removed by centrifugation, and cell-laden microgels were washed twice with PBS in a similar way. Permeabilization buffer (6.3 mM MgCl2, 233.7 mM sucrose, 0.5% (v/v) Triton® X-100 in PBS) was kept at −20° C. and thawed just before use. […]
Proliferative cells were labeled by incubating cell-laden microgels with […] EdU in complete medium for 24 h in rocking culture at 30 rpm. […] EdU was detected following the manufacturer instructions by incubating cell-laden microgels with a Click-iT Plus reaction cocktail for 30 min at 22° C. protected from light. […]

HUVECs = test: 3D SUP hydrogel bead assay coculture (angiogenesis in vitro assay); type: cell-based, human; settings: for Endothelial network formation in bulky hydrogel: after 20 days of coculture, HUVEC-laden microgels, HDFn-loaded bulky hydrogel
Procedure: This assay was done by iterating the 4 combinations between SUP bulk-hydrogels ((3) and SUP microgels (p) (i.e., β-IVFK (SEQ ID NO. 1)+μ-IVFK (SEQ ID NO. 1); β-IVFK (SEQ ID NO. 1)+μ-IVZK (SEQ ID NO. 2); βIVZK (SEQ ID NO. 2)+μ-IVFK (SEQ ID NO. 1); β-IVZK (SEQ ID NO. 2)+μ-IVZK (SEQ ID NO. 2)). The next procedure is the same for all combinations using as an example β-IVFK (SEQ ID NO. 1)+μ-IVFK (SEQ ID NO. 1). HUVECs were cultured on μ-IVFK (SEQ ID NO. 1) for 24 h as described previously. By the bead assay seeding day, IVFK (SEQ ID NO. 1) powder for β-hydrogel was dissolved at 8 mg/mL in sterile water 1 h before seeding. Meanwhile, HDFn cells were harvested and resuspended in 2 xPBS at 1.2×10^6 HDFn cells/mL, and simultaneously, HUVEC laden μ-IVFK (SEQ ID NO. 1) were spun down in a tube at 50 g for 5 min. The supernatant was discarded, and 200 μL of HUVEC-ladenμ-IVFK (SEQ ID NO. 1) was mixed with 200 μL of HDFn cells in 2×PBS. Immediately, 100 μL of IVFK (SEQ ID NO. 1) solution at 8 mg/mL was poured on the culture dish and mixed with 100 μL of HUVEC-laden μ-IVFK (SEQ ID NO. 1) with HDFn cells in 2×PBS. The 3D hydrogel bead assay coculture was incubated at 37° C. for 10 min to guarantee β-IVFK (SEQ ID NO. 1) gelation. The final concentration of β-IVFK (SEQ ID NO. 1) was 4 mg/mL. Afterward, 2 mL of EGM-2 (EBM supplemented with singleQuots) was added to each dish containing the 3D hydrogel bead assay coculture, and the medium was changed every other day until fixation for immunofluorescence on culture day 8 and day 21.
The medium was removed from the 3D SUP hydrogel bead assay coculture samples and incubated with PBS at 37° C. for 15 min. Samples were fixed with 4% formaldehyde (v/v) in PBS for 30 min at 22° C. and washed with PBS for 15 min at 22° C. under rocking. Later, samples were detached from the bottom of the plate using a bent spatula and transferred to individual wells in a 24-well plate where they were permeabilized with 0.5 mL per well of (v/v) Triton® X-100 in PBS for 1 h at 22° C. under rocking. After, samples were blocked overnight at 4° C. in a wet chamber under rocking with 0.5 mL per well of 10% (v/v) goat serum in PBS containing 0.01% (v/v) Triton® X-100. From the next step and on, samples were protected from light all of the time. Samples were incubated for 36 h at 4° C. in a wet chamber under rocking with anti-CD31 Alexa® Fluor 647 and anti-Vimentin Alexa® Fluor 488, both diluted 1/100 in blocking buffer. Samples were washed with PBS for […] at 22° C. with shaking, replacing the PBS every hour. Then, cell nuclei were stained with 0.1 μg/mL DAPI in PBS for 5 min at 22° C. and washed three times with PBS for 5 min Finally, samples were transferred to 27 mm glass bottom dishes and imaged with a CLSM Zeiss® 710 or 880. Imaging of the entire sample was done by whole mount Z-stack tile scanning, and zoom-in images were Z-stack imaging with orthogonal views. Maximum intensity projections of the whole mount and zoom-in are presented.

| Substance | HUVEC cell adhesion and morphology on microgels [1] | Endothelial network formation in bulky hydrogel (HUVECs) | Endothelial sprouting (HUVECs; soft bulk hydrogel 4 mg/mL, after 8 days in culture) | Endothelial network, comparison of bulky hydrogels (HUVECs; IVFK versus IVZK bulky hydrogel, 20 days of coculture) | Lumen (branched hollow structures), comparison of bulky hydrogels (HUVECs; IVFK versus IVZK bulky hydrogels) |
| --- | --- | --- | --- | --- | --- |
| Ac-Ile-Val-Cha-Lys-NH2 (IVXK; HELM PEPTIDE1{[ac].I.V.[Cha].K.[am]}$$$$V2.0; SMILES CC[C@H](C)[C@H](NC(C)=O)C(=O)N[C@H](C(=O)N[C@@H](CC1CCCCC1)C(=O)N[C@@H](CCCCN)C(N)=O)C(C)C) [IVZK, self-assembling ultrashort tetrapeptide, Z = cyclohexylalanine, forms hydrogels and microgels] | cell adhesion and stretched morphology | developed an evident endothelial network | show initial signs of sprouting |  |  |
| Ac-Ile-Val-Phe-Lys-NH2 (Ac-IVFK-NH2) [self-assembling ultrashort tetrapeptide, forms hydrogels and microgels] | cell adhesion and stretched morphology | developed an evident endothelial network |  | more extended and complex | more visible and also larger |
